In patent US9693556B2, “Herbicidal pyridazinone derivatives” (SYNGENTA LIMITED, priority 2011, dated 2017):

Columns and labels:
Type in all cases: in vivo
Setaria faberi (SETFA) [1] = experiment: Pre-emergence herbicidal glasshouse test on Setaria faberi; conditions: pre-emergence; 1000 g/h; evaluated after 13 days
How it was run: (§1)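 Herbicidal damage was rated 13 days after treatment on a five-point scale, where 5 denotes 80-100% and 1 denotes 0-19% damage. Spraying at 1000 g/h followed sowing by one day (pre-emergence) or eight days (post-emergence).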

[2] = system: Amaranthus retoflexus (AMARE); experiment: Pre-emergence herbicidal glasshouse test on Amaranthus retoflexus; conditions: pre-emergence; 1000 g/h; evaluated after 13 days
How it was run: as §1

Solanum nigrum (SOLNI) [3] = experiment: Post-emergence herbicidal glasshouse test on Solanum nigrum; conditions: post-emergence; 1000 g/h; evaluated after 13 days
How it was run: as §1

[4] = system: Ipomoea hederacea (IPOHE); experiment: Pre-emergence herbicidal glasshouse test on Ipomoea hederacea; conditions: pre-emergence; 1000 g/h; evaluated after 13 days
How it was run: as §1

[5] = system: Echinochloa crus-galli (ECHCG); experiment: Post-emergence herbicidal glasshouse test on Echinochloa crus-galli; conditions: post-emergence; 1000 g/h; evaluated after 13 days
How it was run: as §1

[6] = system: Amaranthus retoflexus (AMARE); experiment: Post-emergence herbicidal glasshouse test on Amaranthus retoflexus; conditions: post-emergence; 1000 g/h; evaluated after 13 days
How it was run: as §1

[7] = system: Alopecurus myosuroides (ALOMY); experiment: Pre-emergence herbicidal glasshouse test on Alopecurus myosuroides; conditions: pre-emergence; 1000 g/h; evaluated after 13 days
How it was run: as §1

[8] = system: Echinochloa crus-galli (ECHCG); experiment: Pre-emergence herbicidal glasshouse test on Echinochloa crus-galli; conditions: pre-emergence; 1000 g/h; evaluated after 13 days
How it was run: as §1

[9] = system: Alopecurus myosuroides (ALOMY); experiment: Post-emergence herbicidal glasshouse test on Alopecurus myosuroides; conditions: post-emergence; 1000 g/h; evaluated after 13 days
How it was run: as §1

Solanum nigrum (SOLNI) [10] = experiment: Pre-emergence herbicidal glasshouse test on Solanum nigrum; conditions: pre-emergence; 1000 g/h; evaluated after 13 days
How it was run: as §1

[11] = system: Ipomoea hederacea (IPOHE); experiment: Post-emergence herbicidal glasshouse test on Ipomoea hederacea; conditions: post-emergence; 1000 g/h; evaluated after 13 days
How it was run: as §1

Setaria faberi (SETFA) [12] = experiment: Post-emergence herbicidal glasshouse test on Setaria faberi; conditions: post-emergence; 1000 g/h; evaluated after 13 days
How it was run: as §1

COCn1ncc(-c2ccc(F)cc2S(C)(=O)=O)c(O)c1=O [Compound 2.006]
PRE Application SETFA herbicidal damage (five point scale) (Setaria faberi (SETFA) [1]): 5 (5=80-100% damage) | PRE Application AMARE herbicidal damage (five point scale) [2]: 5 (5=80-100% damage) | POST Application SOLNI herbicidal damage (five point scale) (Solanum nigrum (SOLNI) [3]): 5 (5=80-100% damage) | PRE Application IPOHE herbicidal damage (five point scale) [4]: 5 (5=80-100% damage) | POST Application ECHCG herbicidal damage (five point scale) [5]: 5 (5=80-100% damage) | POST Application AMARE herbicidal damage (five point scale) [6]: 5 (5=80-100% damage) | PRE Application ALOMY herbicidal damage (five point scale) [7]: 5 (5=80-100% damage) | PRE Application ECHCG herbicidal damage (five point scale) [8]: 5 (5=80-100% damage) | POST Application ALOMY herbicidal damage (five point scale) [9]: 5 (5=80-100% damage) | PRE Application SOLNI herbicidal damage (five point scale) (Solanum nigrum (SOLNI) [10]): 5 (5=80-100% damage) | POST Application IPOHE herbicidal damage (five point scale) [11]: 5 (5=80-100% damage) | POST Application SETFA herbicidal damage (five point scale) (Setaria faberi (SETFA) [12]): 5 (5=80-100% damage)

Cn1ncc(-c2ccc(S(C)(=O)=O)c(COCC(F)(F)F)c2Cl)c(O)c1=O [Compound 1.049]
PRE Application SETFA herbicidal damage (five point scale) (Setaria faberi (SETFA) [1]): 3 (3=40-59% damage) | PRE Application AMARE herbicidal damage (five point scale) [2]: 5 (5=80-100% damage) | POST Application SOLNI herbicidal damage (five point scale) (Solanum nigrum (SOLNI) [3]): 5 (5=80-100% damage) | PRE Application IPOHE herbicidal damage (five point scale) [4]: 1 (1=0-19% damage) | POST Application ECHCG herbicidal damage (five point scale) [5]: 5 (5=80-100% damage) | POST Application AMARE herbicidal damage (five point scale) [6]: 5 (5=80-100% damage) | PRE Application ALOMY herbicidal damage (five point scale) [7]: 2 (2=20-39% damage) | PRE Application ECHCG herbicidal damage (five point scale) [8]: 5 (5=80-100% damage) | POST Application ALOMY herbicidal damage (five point scale) [9]: 5 (5=80-100% damage) | PRE Application SOLNI herbicidal damage (five point scale) (Solanum nigrum (SOLNI) [10]): 5 (5=80-100% damage) | POST Application IPOHE herbicidal damage (five point scale) [11]: 5 (5=80-100% damage) | POST Application SETFA herbicidal damage (five point scale) (Setaria faberi (SETFA) [12]): 5 (5=80-100% damage)

Cc1cc(F)ccc1-c1cnn(C)c(=O)c1O [Compound 1.093]
PRE Application SETFA herbicidal damage (five point scale) (Setaria faberi (SETFA) [1]): 1 (1=0-19% damage) | PRE Application AMARE herbicidal damage (five point scale) [2]: 1 (1=0-19% damage) | POST Application SOLNI herbicidal damage (five point scale) (Solanum nigrum (SOLNI) [3]): 2 (2=20-39% damage) | PRE Application IPOHE herbicidal damage (five point scale) [4]: 1 (1=0-19% damage) | POST Application ECHCG herbicidal damage (five point scale) [5]: 1 (1=0-19% damage) | POST Application AMARE herbicidal damage (five point scale) [6]: 1 (1=0-19% damage) | PRE Application ALOMY herbicidal damage (five point scale) [7]: 1 (1=0-19% damage) | PRE Application ECHCG herbicidal damage (five point scale) [8]: 1 (1=0-19% damage) | POST Application ALOMY herbicidal damage (five point scale) [9]: 1 (1=0-19% damage) | PRE Application SOLNI herbicidal damage (five point scale) (Solanum nigrum (SOLNI) [10]): 1 (1=0-19% damage) | POST Application IPOHE herbicidal damage (five point scale) [11]: 1 (1=0-19% damage) | POST Application SETFA herbicidal damage (five point scale) (Setaria faberi (SETFA) [12]): 1 (1=0-19% damage)

COCc1ccc(-c2cnn(C)c(=O)c2O)c(S(C)(=O)=O)c1 [Compound 2.040]
PRE Application SETFA herbicidal damage (five point scale) (Setaria faberi (SETFA) [1]): 4 (4=60-79% damage) | PRE Application AMARE herbicidal damage (five point scale) [2]: 5 (5=80-100% damage) | POST Application SOLNI herbicidal damage (five point scale) (Solanum nigrum (SOLNI) [3]): 5 (5=80-100% damage) | PRE Application IPOHE herbicidal damage (five point scale) [4]: 3 (3=40-59% damage) | POST Application ECHCG herbicidal damage (five point scale) [5]: 5 (5=80-100% damage) | POST Application AMARE herbicidal damage (five point scale) [6]: 5 (5=80-100% damage) | PRE Application ALOMY herbicidal damage (five point scale) [7]: 5 (5=80-100% damage) | PRE Application ECHCG herbicidal damage (five point scale) [8]: 5 (5=80-100% damage) | POST Application ALOMY herbicidal damage (five point scale) [9]: 5 (5=80-100% damage) | PRE Application SOLNI herbicidal damage (five point scale) (Solanum nigrum (SOLNI) [10]): 5 (5=80-100% damage) | POST Application IPOHE herbicidal damage (five point scale) [11]: 5 (5=80-100% damage) | POST Application SETFA herbicidal damage (five point scale) (Setaria faberi (SETFA) [12]): 5 (5=80-100% damage)
